US12662469B2 (SIRONAX LTD, priority 2018, dated 2026)
Read-outs that look alike come from different tables or passages of the source.

Test system: Cell Necrosis
Assay: Cell necrosis assay / cell viability assay (necrosis inhibitor activity)
Assay type: cell-based
[1] = necrosis inhibitor activity, compounds outside 14-191, read-out: EC50
[2] = necrosis inhibitor activity, EC data for 14-191 extrapolated, read-out: EC50

Structure (SMILES) | EC50 [1] [nM] | EC50 [2] [nM] | also measured
NC(=O)c1ccc(F)cc1C=C1CN(C(=O)N2N=CC[C@H]2c2cc(F)cc(F)c2)C1 [Compound 320, (S)-2-((1-(5-(3,5-difluorophenyl)-4,5-dihydro-1H-pyrazole-1-carbonyl)azetidin-3-ylidene)methyl)-4-fluorobenzamide] | 1 to 1000 |  | 
Cc1cnc(N2CCN(C(=O)N3N=CCC3c3ccccc3)CC2)s1 (stereo not drawn) [Compound 106, (4-(5-methylthiazol-2-yl)piperazin-1-yl)(5-phenyl-4,5-dihydro-1H-pyrazol-1-yl)methanone] |  | 1000 to 10000 | 
O=C(N1CC[C@H](Oc2ccccc2)C1)N1N=CCC1c1ccccc1 (stereo partly drawn) [Compound 27B, ((S)-3-phenoxypyrrolidin-1-yl)(S-phenyl-4,5-dihydro-1H-pyrazol-1-yl)methanone] |  | 1 to 1000 | 
N#Cc1cc(F)cc([C@@H]2CC=NN2C(=O)N2CC(=Cc3cc4[nH]nc(F)c4cc3F)C2)c1 [Compound 297, (S)-3-(1-(3-((3,5-difluoro-1H-indazol-6-yl)methylene)azetidine-1-carbonyl)-4,5-dihydro-1H-pyrazol-5-yl)-5-fluorobenzonitrile] | 1 to 1000 |  | 
CNC(=O)c1ccc(OC2CN(C(=O)N3N=CCC3c3cc(F)cc(F)c3)C2)cc1 (stereo not drawn) [Compound 165] |  | 1 to 1000 | 
O=C(N1CC(=Cc2c(F)cccc2F)C1)N1N=CCC1c1cc(F)cc(F)c1 (stereo not drawn) [Compound 133, (3-(2,6-difluorobenzylidene)azetidin-1-yl)(5-(3,5-difluorophenyl)-4,5-dihydro-1H-pyrazol-1-yl)methanone] |  | 1 to 1000 | 
O=C(N1CC(Nc2ccc(F)cc2F)C1)N1N=CCC1c1cc(F)cc(F)c1 (stereo not drawn) [Compound 255, (5-(3,5-difluorophenyl)-4,5-dihydro-1H-pyrazol-1-yl)(3-((2,4-difluorophenyl)amino)azetidin-1-yl)methanone] | 1 to 1000 |  | 
N#Cc1nccc(N[C@@H]2CCN(C(=O)N3N=CC[C@H]3c3cc(F)cc(F)c3)C2)n1 [Compound 348] | 1 to 1000 |  | 
N#Cc1ccc(OC2CN(C(=O)N3N=CCC3c3cc(F)cc(F)c3)C2)c(F)c1 (stereo not drawn) [Compound 136, 4-((1-(5-(3,5-difluorophenyl)-4,5-dihydro-1H-pyrazole-1-carbonyl)azetidin-3-yl)oxy)-3-fluorobenzonitrile] |  | 1 to 1000 | 
O=C(N1CC(=Cc2cc(NC3CC3)ncc2F)C1)N1N=CC[C@H]1c1cc(F)cc(F)c1 [Compound 326, (S)-(3-((2-(cyclopropylamino)-5-fluoropyridin-4-yl)methylene)azetidin-1-yl)(5-(3,5-difluorophenyl)-4,5-dihydro-1H-pyrazol-1-yl)methanone] | 1 to 1000 |  | 
O=C1COc2cc(F)c(OC3CN(C(=O)N4N=CC[C@@H]4c4ccccc4)C3)cc2N1 [(R)-7-fluoro-6-((1-(5-phenyl-4,5-dihydro-1H-pyrazole-1-carbonyl)azetidin-3-yl)oxy)-2H-benzo[b][1,4]oxazin-3(4H)-one] |  |  | activity based on the cell activity assay: weak activity
N#Cc1csc(OC2CN(C(=O)N3N=CCC3c3cc(F)cc(F)c3)C2)n1 (stereo not drawn) [Compound 131, 2-((1-(5-(3,5-difluorophenyl)-4,5-dihydro-1H-pyrazole-1-carbonyl)azetidin-3-yl)oxy)thiazole-4-carbonitrile] |  | 1 to 1000 | 
O=C(N1CC[C@@H](Oc2ccc(F)cc2)C1)N1N=CCC1c1ccccc1 (stereo partly drawn) [Compound 33, ((R)-3-(4-fluorophenoxy)pyrrolidin-1-yl)(5-phenyl-4,5-dihydro-1H-pyrazol-1-yl)methanone] |  | 1 to 1000 | 
O=C(N1CC(Oc2nc3[nH]c(=O)ccc3s2)C1)N1N=CCC1c1cc(F)cc(F)c1 (stereo not drawn) [Compound 179] |  | 1 to 1000 | 
O=C1COc2ccc(C=C3CN(C(=O)N4N=CC[C@H]4c4cc(F)cc(F)c4)C3)cc2N1 [Compound 278, 6-((1-(5-(3,5-difluorophenyl)-4,5-dihydro-1H-pyrazole-1-carbonyl)azetidin-3-ylidene)methyl)-2H-benzo[b][1,4]oxazin-3(4H)-one] | 1 to 1000 |  | 
O=C(N1CCN(c2ccccc2)CC1)N1N=CCC1c1ccccc1 (stereo not drawn) [Compound 91, (5-phenyl-4,5-dihydro-1H-pyrazol-1-yl)(4-phenylpiperazin-1-yl)methanone] |  | 1000 to 10000 | 
CN(c1ccccc1)C1CN(C(=O)N2N=CCC2c2ccccc2)C1 (stereo not drawn) [Compound 20, (3-(methyl(phenyl)amino)azetidin-1-yl)(5-phenyl-4,5-dihydro-1H-pyrazol-1-yl)methanone] |  | 1000 to 10000 | 
O=C1Nc2cc(OC3CN(C(=O)N4N=CC[C@H]4c4cc(F)cc(F)c4)C3)c(F)cc2OC1CCO (stereo partly drawn) [Compound 246, 6-((1-((S)-5-(3,5-difluorophenyl)-4,5-dihydro-1H-pyrazole-1-carbonyl)azetidin-3-yl)oxy)-7-fluoro-2-(2-hydroxyethyl)-2H-benzo[b][1,4]oxazin-3(4H)-one] | 1 to 1000 |  | 
N#Cc1ccnc(O[C@@H]2CCN(C(=O)N3N=CC[C@H]3c3cc(F)cc(F)c3)C2)n1 [Compound 359, 2-(((R)-1-((S)-5-(3,5-difluorophenyl)-4,5-dihydro-1H-pyrazole-1-carbonyl)pyrrolidin-3-yl)oxy)pyrimidine-4-carbonitrile] | 1 to 1000 |  | 
O=C(N1CC(Cc2ccc(F)cc2F)C1)N1N=CCC1c1ccccc1 (stereo not drawn) [Compound 50, (3-(2,4-difluorobenzyl)azetidin-1-yl)(5-phenyl-4,5-dihydro-1H-pyrazol-1-yl)methanone] |  | 1 to 1000 | 

Structure (SMILES) | EC50 [1] [nM] | EC50 [2] [nM] | also measured
N#Cc1ccc(F)c(OC2CN(C(=O)N3N=CC[C@H]3c3cc(F)cc(F)c3)C2)c1 [Compound 235, (S)-3-((1-(5-(3,5-difluorophenyl)-4,5-dihydro-1H-pyrazole-1-carbonyl)azetidin-3-yl)oxy)-4-fluorobenzonitrile] | 1 to 1000 |  | 
O=C(N1CC(Oc2cc3[nH]nc(F)c3cc2F)C1)N1N=CCC1c1cncc(F)c1 (stereo not drawn) [Compound 378, (3-((3,5-difluoro-1H-indazol-6-yl)oxy)azetidin-1-yl)(5-(5-fluoropyridin-3-yl)-4,5-dihydro-1H-pyrazol-1-yl)methanone] | 1 to 1000 |  | 
NC(=O)c1cc(OC2CN(C(=O)N3N=CCC3c3cc(F)cc(F)c3)C2)ccc1Cl (stereo not drawn) [Compound 158] |  | 1 to 1000 | 
O=C(N1CC(Cc2ccc3nc[nH]c3c2)C1)N1N=CCC1c1cc(F)cc(F)c1 (stereo not drawn) [Compound 191] |  | 1 to 1000 | 
O=C(N1CC(Oc2ccc3ccc(=O)[nH]c3c2)C1)N1N=CCC1c1cc(F)cc(F)c1 (stereo not drawn) [Compound 189] |  | 1 to 1000 | 
O=C(N1CC(Nc2ncc(F)cc2F)C1)N1N=CC[C@H]1c1cc(F)cc(F)c1 [Compound 254, (S)-(5-(3,5-difluorophenyl)-4,5-dihydro-1H-pyrazol-1-yl)(3-((3,5-difluoropyridin-2-yl)amino)azetidin-1-yl)methanone] | 1 to 1000 |  | 
Nc1ccc(F)c(C=C2CN(C(=O)N3N=CC[C@H]3c3cc(F)cc(F)c3)C2)n1 [Compound 244] | 1 to 1000 |  | 
O=C(Nc1nc(N2CCN(C(=O)N3N=CC[C@H]3c3cc(F)cc(F)c3)CC2)ncc1F)C1CC1 [Compound 226, (S)—N-(2-(4-(5-(3,5-difluorophenyl)-4,5-dihydro-1H-pyrazole-1-carbonyl)piperazin-1-yl)-5-fluoropyrimidin-4-yl)cyclopropanecarboxamide] | 1 to 1000 |  | 
O=C(N1CC(Oc2nc(NCCO)ncc2F)C1)N1N=CC[C@H]1c1cc(F)cc(F)c1 [Compound 266, (S)-(5-(3,5-difluorophenyl)-4,5-dihydro-H-pyrazol-1-yl)(3-((5-fluoro-2-((2-hydroxyethyl)amino)pyrimidin-4-yl)oxy)azetidin-1-yl)methanone] | 1 to 1000 |  | 
COc1nc(O[C@@H]2CCN(C(=O)N3N=CC[C@H]3c3cc(F)cc(F)c3)C2)ncc1F [Compound 363, ((S)-5-(3,5-difluorophenyl)-4,5-dihydro-1H-pyrazol-1-yl)((R)-3-((5-fluoro-4-methoxypyrimidin-2-yl)oxy)pyrrolidin-1-yl)methanone] | 1 to 1000 |  | 
O=C(N1CC(Oc2ccc(Cl)cc2)C1)N1N=CCC1c1ccccc1 (stereo not drawn) [Compound 65, (3-(4-chlorophenoxy)azetidin-1-yl)(5-phenyl-4,5-dihydro-1H-pyrazol-1-yl)methanone] |  | 1 to 1000 | 
O=C(NC1CCN(c2ncccn2)C1)N1N=CCC1c1ccccc1 (stereo not drawn) [Compound 22] |  | 1000 to 10000 | 
CC1Oc2ccc(OC3CN(C(=O)N4N=CC[C@H]4c4ccccc4)C3)cc2NC1=O (stereo partly drawn) [Compound 355, 2-methyl-6-((1-((S)-5-phenyl-4,5-dihydro-1H-pyrazole-1-carbonyl)azetidin-3-yl)oxy)-2H-benzo[b][1,4]oxazin-3(4H)-one] | 1 to 1000 |  | 
CC(c1ccccc1)C1CN(C(=O)N2N=CCC2c2ccccc2)C1 (stereo not drawn) [Compound 124, (5-phenyl-4,5-dihydro-1H-pyrazol-1-yl)(3-(1-phenylethyl)azetidin-1-yl)methanone] |  | 1000 to 10000 | 
O=C(N1CC(Oc2ccccc2F)C1)N1OCC[C@H]1c1ccccc1 [Compound 77, (S)-(3-(2-fluorophenoxy)azetidin-1-yl)(3-phenylisoxazolidin-2-yl)methanone] |  | 1 to 1000 | 
CC1Oc2cc(F)c(OC3CN(C(=O)N4N=CC[C@H]4c4cc(F)cc(F)c4)C3)cc2NC1=O (stereo partly drawn) [Compound 350, 6-((1-((S)-5-(3,5-difluorophenyl)-4,5-dihydro-1H-pyrazole-1-carbonyl)azetidin-3-yl)oxy)-7-fluoro-2-methyl-2H-benzo[b][1,4]oxazin-3(4H)-one] | 1 to 1000 |  | 
O=C(N1CC(Oc2ccc3nc[nH]c3c2)C1)N1N=CCC1c1cc(F)cc(F)c1 (stereo not drawn) [Compound 178] |  | 1 to 1000 | 
O=C(N1CCN(Cc2ccccc2)CC1)N1N=CCC1c1ccccc1 (stereo not drawn) [Compound 97, (4-benzylpiperazin-1-yl)(5-phenyl-4,5-dihydro-1H-pyrazol-1-yl)methanone] |  |  | EC50: 1000 to 10000 nM
COc1cccc(C=C2CN(C(=O)N3N=CCC3c3ccccc3)C2)c1 (stereo not drawn) [Compound 43, (3-(3-methoxybenzylidene)azetidin-1-yl)(5-phenyl-4,5-dihydro-1H-pyrazol-1-yl)methanone] |  | 1 to 1000 | 
